According to ChEMBL document CHEMBL5050828, “Inhibitors of DUX4 induction for regulation of muscle function” (2021):
Calls of active or inactive are those of the source.

How the values were obtained:
[1] = Downregulation of DUX4 expression in facioscapulohumeral muscular dystrophy (FSHD) affected human embryonic stem cell (hESC)-derived skeletal myoblasts and measured by immunocytochemistry analysis; assay type: functional, cell-based; settings: Myoblast
Myoblast [2] = assay: Downregulation of DUX4 expression in facioscapulohumeral muscular dystrophy (FSHD) affected human embryonic stem cell (hESC)-derived skeletal myoblasts at 100 nM and measured by immunocytochemistry analysis relative to control; assay type: functional, cell-based
Myoblast [3] = assay: Effect on myosin heavy chain expression in facioscapulohumeral muscular dystrophy (FSHD) affected human embryonic stem cell (hESC)-derived skeletal myoblasts at 100 nM and measured by immunocytochemistry analysis relative to control; assay type: functional, cell-based
Myoblast [4] = assay: Effect on nuclei count in facioscapulohumeral muscular dystrophy (FSHD) affected human embryonic stem cell (hESC)-derived skeletal myoblasts at 100 nM and measured by immunocytochemistry analysis relative to control; assay type: functional, cell-based
Myoblast [5] = assay: Downregulation of DUX4 expression in facioscapulohumeral muscular dystrophy (FSHD) affected human embryonic stem cell (hESC)-derived skeletal myoblasts at 0.01 to 3 uM and measured by immunocytochemistry analysis relative to control; assay type: functional, cell-based; settings: dose 0.01-3 µM
Myoblast [6] = assay: Effect on myosin heavy chain expression in facioscapulohumeral muscular dystrophy (FSHD) affected human embryonic stem cell (hESC)-derived skeletal myoblasts at 0.01 to 3 uM and measured by immunocytochemistry analysis relative to control; assay type: functional, cell-based; settings: dose 0.01-3 µM
[7] = Downregulation of DUX4 expression in facioscapulohumeral muscular dystrophy (FSHD) primary pateint derived myoblasts and measured by immunocytochemistry analysis; assay type: functional, cell-based; settings: Homo sapiens, Myoblast
Myoblast [8] = assay: Rescue of apoptosis in facioscapulohumeral muscular dystrophy (FSHD) primary pateint derived myoblasts at 0.01 to 3 uM assessed as decrease in caspase 3/7 activation and measured by live cell imaging method; assay type: functional, cell-based; settings: Homo sapiens, dose 0.01-3 µM
Myoblast [9] = assay: Rescue of cell death in facioscapulohumeral muscular dystrophy (FSHD) primary pateint derived myoblasts at 0.01 to 3 uM and measured by live cell imaging method; assay type: functional, cell-based; settings: Homo sapiens, dose 0.01-3 µM
Myoblast [10] = assay: Effect on DUX4-target gene expression in facioscapulohumeral muscular dystrophy (FSHD) primary pateint derived myoblasts at 0.03 to 3 microM assessed as decrease in CCNA1 expression; assay type: functional, cell-based; settings: Homo sapiens, dose 0.03-3 µM
Myoblast [11] = assay: Effect on DUX4-target gene expression in facioscapulohumeral muscular dystrophy (FSHD) primary pateint derived myoblasts at 0.03 to 3 microM assessed as decrease in KHDC1L expression; assay type: functional, cell-based; settings: Homo sapiens, dose 0.03-3 µM
Myoblast [12] = assay: Effect on DUX4-target gene expression in facioscapulohumeral muscular dystrophy (FSHD) primary pateint derived myoblasts at 0.03 to 3 microM assessed as decrease in LEUTX expression; assay type: functional, cell-based; settings: Homo sapiens, dose 0.03-3 µM
Myoblast [13] = assay: Effect on DUX4-target gene expression in facioscapulohumeral muscular dystrophy (FSHD) primary pateint derived myoblasts at 0.03 to 3 microM assessed as decrease in MBD3L2 expression; assay type: functional, cell-based; settings: Homo sapiens, dose 0.03-3 µM
Myoblast [14] = assay: Effect on DUX4-target gene expression in facioscapulohumeral muscular dystrophy (FSHD) primary pateint derived myoblasts at 0.03 to 3 microM assessed as decrease in PRAMEF2 expression; assay type: functional, cell-based; settings: Homo sapiens, dose 0.03-3 µM
Myoblast [15] = assay: Effect on DUX4-target gene expression in facioscapulohumeral muscular dystrophy (FSHD) primary pateint derived myoblasts at 0.03 to 3 microM assessed as decrease in PRAMEF6 expression; assay type: functional, cell-based; settings: Homo sapiens, dose 0.03-3 µM
Myoblast [16] = assay: Effect on DUX4-target gene expression in facioscapulohumeral muscular dystrophy (FSHD) primary pateint derived myoblasts at 0.03 to 3 microM assessed as decrease in SPRYD5 expression; assay type: functional, cell-based; settings: Homo sapiens, dose 0.03-3 µM
Myoblast [17] = assay: Effect on DUX4-target gene expression in facioscapulohumeral muscular dystrophy (FSHD) primary pateint derived myoblasts at 0.03 to 3 microM assessed as decrease in TRIM43 expression; assay type: functional, cell-based; settings: Homo sapiens, dose 0.03-3 µM
Myoblast [18] = assay: Effect on DUX4-target gene expression in facioscapulohumeral muscular dystrophy (FSHD) primary pateint derived myoblasts at 0.03 to 3 microM assessed as decrease in TRIM49 expression; assay type: functional, cell-based; settings: Homo sapiens, dose 0.03-3 µM
Myoblast [19] = assay: Effect on DUX4-target gene expression in facioscapulohumeral muscular dystrophy (FSHD) primary pateint derived myoblasts at 0.03 to 3 microM assessed as decrease in ZNF296 expression; assay type: functional, cell-based; settings: Homo sapiens, dose 0.03-3 µM
Myoblast [20] = assay: Effect on DUX4-target gene expression in facioscapulohumeral muscular dystrophy (FSHD) primary pateint derived myoblasts at 0.03 to 3 microM assessed as decrease in ZSCAN4 expression; assay type: functional, cell-based; settings: Homo sapiens, dose 0.03-3 µM
Myoblast [21] = assay: Effect on myotube gene expression in facioscapulohumeral muscular dystrophy (FSHD) primary pateint derived myoblasts at 0.03 to 3 microM assessed as decrease in CKM expression; assay type: functional, cell-based; settings: Homo sapiens, dose 0.03-3 µM
Myoblast [22] = assay: Effect on myotube gene expression in facioscapulohumeral muscular dystrophy (FSHD) primary pateint derived myoblasts at 0.03 to 3 microM assessed as decrease in DES expression; assay type: functional, cell-based; settings: Homo sapiens, dose 0.03-3 µM
Myoblast [23] = assay: Effect on myotube gene expression in facioscapulohumeral muscular dystrophy (FSHD) primary pateint derived myoblasts at 0.03 to 3 microM assessed as decrease in DMD expression; assay type: functional, cell-based; settings: Homo sapiens, dose 0.03-3 µM
Myoblast [24] = assay: Effect on myotube gene expression in facioscapulohumeral muscular dystrophy (FSHD) primary pateint derived myoblasts at 0.03 to 3 microM assessed as decrease in MYH3 expression; assay type: functional, cell-based; settings: Homo sapiens, dose 0.03-3 µM
Myoblast [25] = assay: Effect on myotube gene expression in facioscapulohumeral muscular dystrophy (FSHD) primary pateint derived myoblasts at 0.03 to 3 microM assessed as decrease in MYH8 expression; assay type: functional, cell-based; settings: Homo sapiens, dose 0.03-3 µM
Myoblast [26] = assay: Effect on myotube gene expression in facioscapulohumeral muscular dystrophy (FSHD) primary pateint derived myoblasts at 0.03 to 3 microM assessed as decrease in MYOG expression; assay type: functional, cell-based; settings: Homo sapiens, dose 0.03-3 µM
[27] = Half-life in male CD-1 mouse at 10 mg/kg, IM measured by LC-MS/MS analysis; assay type: ADME, organism-based; settings: in vivo
[28] = Half-life in male CD-1 mouse at 50 mg/kg, IM measured by LC-MS/MS analysis; assay type: ADME, organism-based; settings: in vivo
[29] = Brain concentration in male CD-1 mouse at 10 mg/kg, IM administered as single dose and measured by LC-MS/MS analysis; assay type: ADME, organism-based; settings: in vivo, BLD = below limit of detection
Myoblast [30] = assay: Effect on DNA methylation levels at 4qA regions of chromosome 4 in myotubes of facioscapulohumeral muscular dystrophy (FSHD) affected human embryonic stem cell (hESC)-derived skeletal myoblasts at 0.01 to 1 uM; assay type: functional, cell-based; settings: dose 0.01-1 µM
Myoblast [31] = assay: Effect on DNA methylation levels at D4Z4 regions of chromosome 4 in myotubes of facioscapulohumeral muscular dystrophy (FSHD) affected human embryonic stem cell (hESC)-derived skeletal myoblasts at 0.01 to 1 uM; assay type: functional, cell-based; settings: dose 0.01-1 µM
Myoblast [32] = assay: Effect on PRKDC expression in facioscapulohumeral muscular dystrophy (FSHD) primary pateint derived myoblasts at 0.01 to 1 uM and measured by RT-PCR analysis; assay type: functional, cell-based; settings: Homo sapiens, dose 0.01-1 µM
Myoblast [33] = assay: Effect on SRC expression in facioscapulohumeral muscular dystrophy (FSHD) primary pateint derived myoblasts at 0.01 to 1 uM and measured by RT-PCR analysis; assay type: functional, cell-based; settings: Homo sapiens, dose 0.01-1 µM
[34] = target: DNA-dependent protein kinase catalytic subunit (Homo sapiens) (UniProt P78527); assay: Inhibition of PRKDC in facioscapulohumeral muscular dystrophy (FSHD) primary pateint derived myoblasts at 0.01 to 1 uM and measured by immunofluorescence method; assay type: cell-based; settings: Myoblast, dose 0.01-1 µM
Sequence of DNA-dependent protein kinase catalytic subunit (Homo sapiens) (P78527 whole entry): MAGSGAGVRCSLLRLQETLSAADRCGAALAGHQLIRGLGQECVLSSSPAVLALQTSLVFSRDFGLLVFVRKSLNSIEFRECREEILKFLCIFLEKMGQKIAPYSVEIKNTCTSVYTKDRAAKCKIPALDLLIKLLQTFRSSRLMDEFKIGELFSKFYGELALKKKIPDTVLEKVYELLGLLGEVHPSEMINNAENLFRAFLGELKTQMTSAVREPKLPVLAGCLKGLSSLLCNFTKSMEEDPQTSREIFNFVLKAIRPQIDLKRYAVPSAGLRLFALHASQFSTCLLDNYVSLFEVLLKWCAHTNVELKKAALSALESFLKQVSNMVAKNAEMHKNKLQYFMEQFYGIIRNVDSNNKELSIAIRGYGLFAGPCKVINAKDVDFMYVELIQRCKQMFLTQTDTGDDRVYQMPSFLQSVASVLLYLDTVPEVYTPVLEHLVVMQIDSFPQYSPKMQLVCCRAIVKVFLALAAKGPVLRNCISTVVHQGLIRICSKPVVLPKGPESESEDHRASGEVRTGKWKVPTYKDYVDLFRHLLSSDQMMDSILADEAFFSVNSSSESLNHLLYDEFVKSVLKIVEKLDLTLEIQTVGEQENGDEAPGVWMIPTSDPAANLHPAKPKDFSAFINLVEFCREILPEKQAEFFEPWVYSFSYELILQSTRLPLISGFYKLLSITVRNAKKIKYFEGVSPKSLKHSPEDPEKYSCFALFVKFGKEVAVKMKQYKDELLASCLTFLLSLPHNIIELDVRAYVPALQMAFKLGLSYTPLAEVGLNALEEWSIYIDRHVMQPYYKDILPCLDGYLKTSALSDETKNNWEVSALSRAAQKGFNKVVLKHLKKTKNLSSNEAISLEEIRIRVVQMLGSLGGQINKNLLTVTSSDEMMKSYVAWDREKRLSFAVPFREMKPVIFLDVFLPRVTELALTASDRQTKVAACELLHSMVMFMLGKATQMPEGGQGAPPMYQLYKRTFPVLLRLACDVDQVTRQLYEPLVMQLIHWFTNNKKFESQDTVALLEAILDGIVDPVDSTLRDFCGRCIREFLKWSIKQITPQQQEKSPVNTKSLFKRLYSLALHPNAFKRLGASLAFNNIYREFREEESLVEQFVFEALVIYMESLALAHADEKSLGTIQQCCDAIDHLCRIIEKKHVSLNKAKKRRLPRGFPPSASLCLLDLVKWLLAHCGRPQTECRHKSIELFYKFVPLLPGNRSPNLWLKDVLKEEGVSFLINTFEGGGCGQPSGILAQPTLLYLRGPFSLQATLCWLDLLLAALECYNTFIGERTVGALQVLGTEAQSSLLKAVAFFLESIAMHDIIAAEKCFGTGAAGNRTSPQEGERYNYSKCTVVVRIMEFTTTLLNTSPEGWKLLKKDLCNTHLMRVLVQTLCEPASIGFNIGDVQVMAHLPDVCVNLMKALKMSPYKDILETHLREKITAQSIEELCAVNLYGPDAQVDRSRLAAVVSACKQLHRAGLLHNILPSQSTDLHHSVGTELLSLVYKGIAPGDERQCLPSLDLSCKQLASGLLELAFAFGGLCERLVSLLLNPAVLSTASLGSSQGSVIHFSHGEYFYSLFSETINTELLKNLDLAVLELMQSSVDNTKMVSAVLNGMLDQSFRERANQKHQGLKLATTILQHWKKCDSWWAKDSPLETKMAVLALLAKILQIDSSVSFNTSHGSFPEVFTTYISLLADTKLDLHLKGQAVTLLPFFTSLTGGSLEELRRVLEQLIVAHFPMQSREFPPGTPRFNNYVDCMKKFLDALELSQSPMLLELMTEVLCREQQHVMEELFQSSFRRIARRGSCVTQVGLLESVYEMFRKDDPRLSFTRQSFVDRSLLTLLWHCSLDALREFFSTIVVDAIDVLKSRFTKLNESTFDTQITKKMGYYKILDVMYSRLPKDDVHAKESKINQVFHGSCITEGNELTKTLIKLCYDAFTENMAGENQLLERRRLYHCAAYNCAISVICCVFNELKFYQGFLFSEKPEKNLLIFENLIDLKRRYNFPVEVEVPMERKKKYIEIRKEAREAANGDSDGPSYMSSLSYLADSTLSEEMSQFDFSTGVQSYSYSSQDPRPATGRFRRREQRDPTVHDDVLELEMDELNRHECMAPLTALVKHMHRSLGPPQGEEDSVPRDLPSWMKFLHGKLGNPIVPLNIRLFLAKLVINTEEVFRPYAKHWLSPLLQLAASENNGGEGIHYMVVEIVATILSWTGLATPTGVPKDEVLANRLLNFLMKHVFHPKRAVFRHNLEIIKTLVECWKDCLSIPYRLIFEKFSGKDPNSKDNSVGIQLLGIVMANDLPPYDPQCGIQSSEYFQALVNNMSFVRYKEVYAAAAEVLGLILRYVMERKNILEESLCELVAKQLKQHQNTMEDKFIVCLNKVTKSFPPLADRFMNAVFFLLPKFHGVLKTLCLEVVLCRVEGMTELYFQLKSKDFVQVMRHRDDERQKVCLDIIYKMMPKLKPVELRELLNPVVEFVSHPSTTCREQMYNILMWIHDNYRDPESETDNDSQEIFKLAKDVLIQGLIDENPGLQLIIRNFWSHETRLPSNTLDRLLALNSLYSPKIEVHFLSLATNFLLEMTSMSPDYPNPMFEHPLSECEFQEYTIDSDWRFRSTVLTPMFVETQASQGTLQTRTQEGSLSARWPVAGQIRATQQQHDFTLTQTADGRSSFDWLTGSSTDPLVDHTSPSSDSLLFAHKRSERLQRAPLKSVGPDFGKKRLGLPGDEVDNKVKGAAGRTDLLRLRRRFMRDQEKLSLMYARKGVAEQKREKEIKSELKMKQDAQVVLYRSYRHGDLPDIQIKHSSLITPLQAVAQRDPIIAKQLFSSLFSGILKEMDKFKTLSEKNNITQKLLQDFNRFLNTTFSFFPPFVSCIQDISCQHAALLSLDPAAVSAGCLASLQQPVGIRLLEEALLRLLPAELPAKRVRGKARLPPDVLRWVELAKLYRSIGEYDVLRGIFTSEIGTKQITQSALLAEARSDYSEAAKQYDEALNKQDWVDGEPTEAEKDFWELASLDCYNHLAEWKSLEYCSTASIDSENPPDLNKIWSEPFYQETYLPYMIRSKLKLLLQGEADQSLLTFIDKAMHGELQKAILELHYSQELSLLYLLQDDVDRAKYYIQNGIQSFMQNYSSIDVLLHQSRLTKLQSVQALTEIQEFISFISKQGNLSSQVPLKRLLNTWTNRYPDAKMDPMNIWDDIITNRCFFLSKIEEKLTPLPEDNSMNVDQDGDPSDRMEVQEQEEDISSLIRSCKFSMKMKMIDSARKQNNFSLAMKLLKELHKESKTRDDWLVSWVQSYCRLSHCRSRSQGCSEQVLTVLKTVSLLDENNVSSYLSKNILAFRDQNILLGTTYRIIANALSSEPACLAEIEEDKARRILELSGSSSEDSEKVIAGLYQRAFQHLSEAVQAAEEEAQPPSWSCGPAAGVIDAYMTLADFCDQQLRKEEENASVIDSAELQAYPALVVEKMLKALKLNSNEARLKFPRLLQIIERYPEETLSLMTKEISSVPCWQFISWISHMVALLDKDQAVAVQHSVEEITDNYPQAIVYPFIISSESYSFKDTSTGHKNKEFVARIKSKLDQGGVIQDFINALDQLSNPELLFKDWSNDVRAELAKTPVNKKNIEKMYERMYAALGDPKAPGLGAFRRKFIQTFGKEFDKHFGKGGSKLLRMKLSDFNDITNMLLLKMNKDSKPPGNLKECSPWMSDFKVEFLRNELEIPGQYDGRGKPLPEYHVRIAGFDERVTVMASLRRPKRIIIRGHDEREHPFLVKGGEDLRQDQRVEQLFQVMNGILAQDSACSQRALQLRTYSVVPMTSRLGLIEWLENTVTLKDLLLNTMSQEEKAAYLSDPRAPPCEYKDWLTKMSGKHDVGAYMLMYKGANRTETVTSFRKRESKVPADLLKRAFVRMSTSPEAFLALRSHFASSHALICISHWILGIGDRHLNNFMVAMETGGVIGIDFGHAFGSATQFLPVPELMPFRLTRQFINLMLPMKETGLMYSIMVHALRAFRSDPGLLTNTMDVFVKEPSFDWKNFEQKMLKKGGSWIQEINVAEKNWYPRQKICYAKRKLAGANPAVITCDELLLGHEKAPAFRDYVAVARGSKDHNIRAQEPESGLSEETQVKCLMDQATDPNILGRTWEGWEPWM

[35] = target: Proto-oncogene tyrosine-protein kinase Src (Homo sapiens) (UniProt P12931); assay: Inhibition of SRC in facioscapulohumeral muscular dystrophy (FSHD) primary pateint derived myoblasts at 0.01 to 1 uM and measured by immunofluorescence method; assay type: cell-based; settings: Myoblast, dose 0.01-1 µM
Sequence of Proto-oncogene tyrosine-protein kinase Src (Homo sapiens) (P12931 2-536 limits assumed): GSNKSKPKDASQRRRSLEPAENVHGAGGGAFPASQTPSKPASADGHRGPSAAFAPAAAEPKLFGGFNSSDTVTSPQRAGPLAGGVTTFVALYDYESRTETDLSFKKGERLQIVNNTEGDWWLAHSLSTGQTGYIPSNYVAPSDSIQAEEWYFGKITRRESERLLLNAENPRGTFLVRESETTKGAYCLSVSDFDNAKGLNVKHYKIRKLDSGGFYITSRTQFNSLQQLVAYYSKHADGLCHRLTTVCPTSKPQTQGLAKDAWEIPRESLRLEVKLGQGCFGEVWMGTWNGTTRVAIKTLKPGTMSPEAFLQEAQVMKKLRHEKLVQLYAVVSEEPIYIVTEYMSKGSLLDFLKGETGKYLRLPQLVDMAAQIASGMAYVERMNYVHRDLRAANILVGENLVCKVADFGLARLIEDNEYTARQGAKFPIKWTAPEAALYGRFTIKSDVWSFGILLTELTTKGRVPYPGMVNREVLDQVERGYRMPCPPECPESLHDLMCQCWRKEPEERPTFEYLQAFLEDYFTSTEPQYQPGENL

CNC(=O)c1cc(Oc2ccc(NC(=O)Nc3cc(C(C)(C)C)nn3-c3ccc4ncccc4c3)c(F)c2)ccn1 [REBASTINIB]
8.1 h: half-life [28]
37.9 µM: EC50 [1]
0.1 µM: IC50 [7]
5.59 h: half-life [27]
active: Activity (Myoblast [2]) | Activity (Myoblast [5]) | Activity (Myoblast [8]) | Activity (Myoblast [9]) | Activity (Myoblast [10]) | Activity (Myoblast [11]) | Activity (Myoblast [12]) | Activity (Myoblast [13]) | Activity (Myoblast [14]) | Activity (Myoblast [15]) | Activity (Myoblast [16]) | Activity (Myoblast [17]) | Activity (Myoblast [18]) | Activity (Myoblast [19]) | Activity (Myoblast [20]) | inhibition [34] | inhibition [35]
Bld: Drug uptake [29]
inactive: Activity (Myoblast [3]) | Activity (Myoblast [4]) | Activity (Myoblast [6]) | Activity (Myoblast [21]) | Activity (Myoblast [22]) | Activity (Myoblast [23]) | Activity (Myoblast [24]) | Activity (Myoblast [25]) | Activity (Myoblast [26]) | Activity (Myoblast [30]) | Activity (Myoblast [31]) | Activity (Myoblast [32]) | Activity (Myoblast [33])
